Activity calls are given as the source filed them. The calls are words filed in the database; no cut-off is given here.
Key:
L1210 [1] = experiment: Antiproliferative activity of compound was assessed using the murine L1210 leukemia cell line; format: functional, cell-based; conditions: Mus musculus
HT-29 = experiment: Cytotoxicity of compound was evaluated on the HT-29 cell line; format: functional, cell-based; conditions: Homo sapiens
L1210 [2] = experiment: Percent perturbations evaluated at 10 uM induced on L1210 cells in the >G2+M (8N) phase of cell cycle; inactive; format: functional, cell-based; conditions: Mus musculus
L1210 [3] = experiment: Percent perturbations evaluated at 10 uM induced on L1210 cells in the G2+M phase of cell cycle; format: functional, Mus musculus
L1210 [4] = experiment: Percent perturbations evaluated at 10 uM induced on L1210 cells in the >G2+M (8N) phase of cell cycle; format: functional, Mus musculus

Structure (SMILES)	IC50 (L1210 [1])	IC50 (HT-29)	Perturbations (L1210 [2])	Perturbations (L1210 [3])	Perturbations (L1210 [4])
N#Cc1nc2ccccc2c2nc3ccccc3n12	5.4 µM	5.2 µM	inactive	61%	–
c1ccc2c(c1)ncn1c3ccccc3nc21	> 100 µM	–	–	–	–
N#Cc1[nH]c2ccccc2c2nc3ccccc3c1-2	> 100 µM	–	–	–	–
CN(C)CCn1c2ccccc2c2c(C#N)nc3ccccc3c21	3.1 µM	0.68 µM	–	50%	21%
Cn1c2ccccc2c2c(C#N)nc3ccccc3c21	58.8 µM	–	–	–	–

From ChEMBL document CHEMBL1133049, “Expeditious synthesis and cytotoxic activity of new cyanoindolo[3,2-c]quinolines and benzimidazo[1,2-c]quinazolines” (Bioorg Med Chem Lett, 2000)
